Series [1] in a line: Assay for determination of apparent permeability (Papp), bi-directional transport. The settings on record: pig, LLC-PK1; 1 μM test compound, t=3 h, average of A to B and B to A; read-out: Papp LLC-PK1 cells. Type of series: in vitro ADME. The protocol: Assay for Determination of Apparent Permeability (Papp)
Bi-directional transport was evaluated in LLC-PK1 cells in order to determine apparent permeability (Papp). LLC-PK1 cells can form a tight monolayer and therefore can be used to assess vectorial transport of compounds from basolateral to apical (B→A) and from apical to basolateral (A→B).
To determine Papp, LLC-PK1 cells were cultured in 96-well transwell culture plates (Millipore). Solutions containing the test compounds (1 μM) were prepared in Hank's Balanced Salt Solution with 10 mM HEPES. Substrate solution (150 μL) was added to either the apical (A) or the basolateral (B) compartment of the culture plate, and buffer (150 μL) was added to the compartment opposite to that containing the compound. At t=3 h, 50 μL samples were removed from both sides of monolayers dosed with test compound and placed in 96 well plates, scintillant (200 μL) or internal standard (100 μL labetolol 1 μM) was added to the samples and concentration was determined by liquid scintillation counting in a MicroBeta Wallac Trilux scintillation counter (Perkin Elmer Life Sciences, Boston, Mass.) or by LCMS/MS (Applied Biosystems SCIEX API 5000 triple quadruple mass spectrometer). [^3H]Verapamil (1 μM) was used as the positive control. The experiment was performed in triplicate.
[formula] Where: Volume of Receptor Chamber was 0.15 mL; Area of membrane was 0.11 cm^2; the Initial Concentration is the sum of the concentration measured in the donor plus concentration measured in receiver compartments at t=3 h; A in Concentration is concentration in the receiver compartment at 3 h; and Δ in Time is the incubation time (3×60×60=10800 s). Papp was expressed as 10^−6 cm/s.

The target of another series is human O-GlcNAcase (Homo sapiens (Human), UniProt O60502). Kind of series: Assay for determination of KI values for inhibition of O-GlcNAcase activity (fluorescence-based hOGA). It is filed as biochemical. The following applies: purified human O-GlcNAcase, 4-Methylumbelliferyl N-acetyl-β-D-glucosaminide substrate, pH 7.0, Cheng-Prusoff. The protocol: Assay for Determination of KI Values for Inhibition of O-GlcNAcase Activity
human O-GlcNAcase, sequence (O60502 whole entry): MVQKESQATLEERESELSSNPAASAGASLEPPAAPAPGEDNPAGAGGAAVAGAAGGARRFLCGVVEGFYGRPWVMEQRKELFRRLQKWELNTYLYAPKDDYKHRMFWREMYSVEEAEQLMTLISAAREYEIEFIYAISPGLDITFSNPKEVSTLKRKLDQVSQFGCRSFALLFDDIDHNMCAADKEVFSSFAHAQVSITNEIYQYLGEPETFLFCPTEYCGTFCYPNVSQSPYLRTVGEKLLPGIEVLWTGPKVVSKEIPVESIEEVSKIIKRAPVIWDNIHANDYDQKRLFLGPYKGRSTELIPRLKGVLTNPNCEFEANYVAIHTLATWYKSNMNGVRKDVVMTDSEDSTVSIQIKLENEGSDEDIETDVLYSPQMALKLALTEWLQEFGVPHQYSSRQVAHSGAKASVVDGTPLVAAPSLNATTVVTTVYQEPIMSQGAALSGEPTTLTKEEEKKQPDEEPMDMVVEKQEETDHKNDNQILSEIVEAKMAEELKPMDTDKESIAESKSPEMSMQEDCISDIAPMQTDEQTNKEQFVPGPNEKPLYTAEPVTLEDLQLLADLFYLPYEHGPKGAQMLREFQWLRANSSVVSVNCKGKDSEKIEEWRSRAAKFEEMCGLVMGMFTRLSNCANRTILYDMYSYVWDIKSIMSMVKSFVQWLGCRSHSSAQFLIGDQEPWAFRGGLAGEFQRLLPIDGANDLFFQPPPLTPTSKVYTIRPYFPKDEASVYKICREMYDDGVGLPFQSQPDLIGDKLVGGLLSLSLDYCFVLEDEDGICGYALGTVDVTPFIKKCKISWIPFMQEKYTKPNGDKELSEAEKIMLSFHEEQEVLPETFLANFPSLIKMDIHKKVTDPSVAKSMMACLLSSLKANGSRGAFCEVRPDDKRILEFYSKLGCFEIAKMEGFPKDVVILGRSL
Experimental Procedure for Kinetic Analyses:
Enzymatic reactions were carried out in a reaction containing 50 mM NaH2PO4, 100 mM NaCl and 0.1% BSA (pH 7.0) using 2 mM 4-Methylumbelliferyl N-acetyl-β-D-glucosaminide dihydrate (Sigma M2133) dissolved in ddH2O, as a substrate. The amount of purified human O-GlcNAcase enzyme used in the reaction was 0.7 nM. Test compound of varying concentrations was added to the enzyme prior to initiation of the reaction. The reaction was performed at room temperature in a 96-well plate and was initiated with the addition of substrate. […] The slope of product production was determined for each concentration of compound tested and plotted, using standard curve fitting algorithms for sigmoidal dose response curves. The values for a four parameter logistic curve fit of the data were determined.

Another series concerns the target O-GlcNAcase (Rattus norvegicus (Rat), UniProt Q8VIJ5). Kind of series: Cell-based ELISA of O-GlcNAcylated protein (RL-2 antibody) for cellular activity of O-GlcNAcase inhibitors. The following applies: rat PC-12 cells, 24 h treatment, O-GlcNAcylated protein detected with RL-2 antibody. An excerpt:
Assay for Determination of Cellular Activity for Compounds that Inhibit O-GlcNAcase Activity
Inhibition of O-GlcNAcase, which removes O-GlcNAc from cellular proteins, results in an increase in the level of O-GlcNAcylated protein in cells. An increase in O-GlcNAcylated protein can be measured by an antibody, such as RL-2, that binds to O-GlcNAcylated protein. The amount of O-GlcNAcylated protein:RL2 antibody interaction can be measured by enzyme linked immunosorbant assay (ELISA) procedures.
A variety of tissue culture cell lines, expressing endogenous levels of O-GlcNAcase, can be utilized; examples include rat PC-12, and human U-87, or SK—N—SH cells. […] Compounds to be tested were dissolved in DMSO, either 2 or 10 mM stock solution, and then diluted with DMSO and water in a two-step process using a Tecan workstation. […] To prepare a cell lysate, the media from compound treated cells was removed, the cells were washed once with phosphate buffered saline (PBS) and then lysed for 5 minutes at room temperature in 50 μL of Phosphosafe reagent (Novagen Inc, Madison, Wis.) with protease inhibitors and PMSF. The cell lysate was collected and transferred to a new plate, which was then either coated to assay plates directly or frozen −80° C. until used in the ELISA procedure. If desired, the total protein concentration of samples was determined using 20 μL of the sample using the BCA method.
The ELISA portion of the assay was performed in a black Maxisorp 96-well plate that was coated overnight at 4° C. with 100 μL/well of the cell lysate (1:10 dilution of the lysate with PBS containing protease inhibitors, phosphatase inhibitors, and PMSF). […]
The amount of O-GlcNAcylated protein, as detected by the ELISA assay, was plotted for each concentration of test compound using standard curve fitting algorithms for sigmoidal dose response curves. The values for a four parameter logistic curve fit of the data were determined, with the inflection point of the curve being the potency value for the test compound.
In general terms: In an ELISA, binding on a coated surface is turned into a signal by an enzyme label.

This passage reports Papp, Ki and EC50 results from patent publication US9409924B2, “Selective glycosidase inhibitors and uses thereof” (Alectos Therapeutics Inc., priority 2011, dated 2016).

O-GlcNAcase, sequence (Q8VIJ5 whole entry): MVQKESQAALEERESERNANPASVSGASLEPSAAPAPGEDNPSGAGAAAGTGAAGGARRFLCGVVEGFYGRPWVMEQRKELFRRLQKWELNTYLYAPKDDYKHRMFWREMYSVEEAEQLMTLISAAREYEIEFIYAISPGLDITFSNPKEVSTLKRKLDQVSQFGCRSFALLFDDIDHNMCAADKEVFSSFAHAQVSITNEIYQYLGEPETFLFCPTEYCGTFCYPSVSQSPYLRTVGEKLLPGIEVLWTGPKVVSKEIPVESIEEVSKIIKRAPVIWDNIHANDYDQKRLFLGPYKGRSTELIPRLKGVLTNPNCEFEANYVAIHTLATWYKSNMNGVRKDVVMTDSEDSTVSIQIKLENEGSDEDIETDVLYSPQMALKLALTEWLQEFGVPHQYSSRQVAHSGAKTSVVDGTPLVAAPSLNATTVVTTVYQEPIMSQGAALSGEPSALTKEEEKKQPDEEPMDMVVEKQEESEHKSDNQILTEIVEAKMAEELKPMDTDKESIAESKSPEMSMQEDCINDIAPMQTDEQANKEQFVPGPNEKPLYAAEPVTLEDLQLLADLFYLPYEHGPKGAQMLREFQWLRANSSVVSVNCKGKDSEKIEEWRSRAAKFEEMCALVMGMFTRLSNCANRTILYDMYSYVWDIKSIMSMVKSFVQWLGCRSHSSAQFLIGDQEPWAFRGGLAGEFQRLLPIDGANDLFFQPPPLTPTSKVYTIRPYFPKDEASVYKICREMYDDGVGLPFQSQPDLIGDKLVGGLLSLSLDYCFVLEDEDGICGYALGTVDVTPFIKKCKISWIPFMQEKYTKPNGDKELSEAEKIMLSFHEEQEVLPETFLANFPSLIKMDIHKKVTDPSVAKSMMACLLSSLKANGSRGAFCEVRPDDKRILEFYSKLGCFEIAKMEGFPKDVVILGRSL

What is called Papp is a coefficient for how fast a substance crosses the barrier. `CNC1=N[C@@H]2[C@@H](F)[C@H](O)[C@@H]([C@H](C)O)O[C@@H]2S1` [Example 1, (3aR,5R,6R,7R,7aR)-7-fluoro-5-((S)-1-hydroxyethyl)-2-(methylamino)-5,6,7,7a-tetrahydro-3aH-pyrano[3,2-d]thiazol-6-ol]: the Papp at 3 h, 1 μM in series [1] was 3.3 ×10⁻⁶ cm/s. A word on the Ki: it is a dissociation constant, usually derived from enzyme kinetics or from competition with a known ligand. Lower therefore signals a stronger hold on the target. Compound `CCNC1=N[C@@H]2[C@@H](F)[C@H](O)[C@@H]([C@H](C)O)O[C@@H]2S1` [Example 3, (3aR,5R,6R,7R,7aR)-2-(ethylamino)-7-fluoro-5-((S)-1-hydroxyethyl)-5,6,7,7a-tetrahydro-3aH-pyrano[3,2-d]thiazol-6-ol] came in with a Ki at human O-GlcNAcase of 12 nM. Further, in series [1], the apparent permeability coefficient (Papp) at 3 h, 1 μM came out at 5.2 ×10⁻⁶ cm/s.

Take `C[C@H](O)[C@H]1O[C@@H]2SC(N(C)C)=N[C@@H]2[C@@H](F)[C@@H]1O` [Example 5, (3aR,5R,6R,7R,7aR)-2-(dimethylamino)-7-fluoro-5-((S)-1-hydroxyethyl)-5,6,7,7a-tetrahydro-3aH-pyrano[3,2-d]thiazol-6-ol]: the Ki on human O-GlcNAcase is 16 nM. For the same compound, the Papp at 3 h, 1 μM in series [1] is 14 ×10⁻⁶ cm/s. In the same order, the values of `CCNC1=N[C@@H]2[C@@H](F)[C@H](O)[C@@H]([C@@H](O)C(F)(F)F)O[C@@H]2S1` [Example 7, (3aR,5S,6R,7R,7aR)-2-(ethylamino)-7-fluoro-5-((R)-2,2,2-trifluoro-1-hydroxyethyl)-5,6,7,7a-tetrahydro-3aH-pyrano[3,2-d]thiazol-6-ol] are 16 nM and 15 ×10⁻⁶ cm/s. As a reminder, the EC50 is the concentration giving half of the maximal effect. A high value points to lower potency in that assay. On human O-GlcNAcase, `CNC1=N[C@@H]2[C@@H](F)[C@H](O)[C@@H]([C@@H](O)C(F)(F)F)O[C@@H]2S1` [Example 9, (3aR,5S,6R,7R,7aR)-7-fluoro-2-(methylamino)-5-((R)-2,2,2-trifluoro-1-hydroxyethyl)-5,6,7,7a-tetrahydro-3aH-pyrano[3,2-d]thiazol-6-ol] yielded a Ki of 3.5 nM. This compound also registered an EC50 on O-GlcNAcase of 74 nM. Further, in series [1], the apparent permeability coefficient (Papp) at 3 h, 1 μM was determined as 6.6 ×10⁻⁶ cm/s. Compound `CN(C)C1=N[C@@H]2[C@@H](F)[C@H](O)[C@@H]([C@@H](O)C(F)(F)F)O[C@@H]2S1` [Example 11, (3aR,5S,6R,7R,7aR)-2-(dimethylamino)-7-fluoro-5-((R)-2,2,2-trifluoro-1-hydroxyethyl)-5,6,7,7a-tetrahydro-3aH-pyrano[3,2-d]thiazol-6-ol] came in with a Ki on human O-GlcNAcase of 9.5 nM. In addition, in series [1], the Papp at 3 h, 1 μM is 23 ×10⁻⁶ cm/s. In the same order, the values of `CCNC1=N[C@@H]2C[C@H](O)[C@@H]([C@H](C)O)O[C@@H]2S1` [Example 13, (3aR,5R,6S,7aR)-2-(ethylamino)-5-((S)-1-hydroxyethyl)-5,6,7,7a-tetrahydro-3aH-pyrano[3,2-d]thiazol-6-ol] are 26 nM and 2.3 ×10⁻⁶ cm/s. Consider `CC[C@H]1O[C@@H]2SC(NC)=N[C@@H]2[C@@H](F)[C@@H]1O` [Example 15, (3aR,5R,6R,7R,7aR)-5-ethyl-7-fluoro-2-(methylamino)-5,6,7,7a-tetrahydro-3aH-pyrano[3,2-d]thiazol-6-ol], for which the Ki at human O-GlcNAcase stood at 156 nM. The Papp at 3 h, 1 μM in series [1] turned out to be 34 ×10⁻⁶ cm/s. `CNC1=N[C@@H]2C[C@H](O)[C@@H]([C@@H](O)C(F)(F)F)O[C@@H]2S1` [Example 20, (3aR,5S,6S,7aR)-2-(methylamino)-5-((R)-2,2,2-trifluoro-1-hydroxyethyl)-5,6,7,7a-tetrahydro-3aH-pyrano[3,2-d]thiazol-6-ol] had an inhibition constant (Ki) on human O-GlcNAcase of 3.5 nM. Further, the EC50 at O-GlcNAcase was 50 nM. Besides, the Papp at 3 h, 1 μM in series [1] stood at 3.4 ×10⁻⁶ cm/s. Take `CNC1=N[C@@H]2C[C@H](O)[C@@H]([C@@](C)(O)C(F)(F)F)O[C@@H]2S1` [Example 29, (3aR,5S,6S,7aR)-2-(methylamino)-5-((R)-1,1,1-trifluoro-2-hydroxypropan-2-yl)-5,6,7,7a-tetrahydro-3aH-pyrano[3,2-d]thiazol-6-ol]: the affinity on human O-GlcNAcase, expressed as Ki, was 492 nM.

Turning to `O[C@H]1[C@H](F)[C@H]2N=C(N3CCC3)S[C@H]2O[C@@H]1[C@@H](O)C(F)(F)F` [Example 32, (3aR,5S,6R,7R,7aR)-2-(azetidin-1-yl)-7-fluoro-5-((R)-2,2,2-trifluoro-1-hydroxyethyl)-5,6,7,7a-tetrahydro-3aH-pyrano[3,2-d]thiazol-6-ol], the Ki at human O-GlcNAcase is 13 nM. Moreover, in series [1], the Papp at 3 h, 1 μM turned out to be 21 ×10⁻⁶ cm/s.

Take `CNC1=N[C@@H]2[C@H](F)[C@H](O)[C@@H]([C@H](C)O)O[C@@H]2S1` [Example 34, (3aR,5R,6R,7S,7aR)-7-fluoro-5-((S)-1-hydroxyethyl)-2-(methylamino)-5,6,7,7a-tetrahydro-3aH-pyrano[3,2-d]thiazol-6-ol]: in series [1], the Papp at 3 h, 1 μM stood at 1.9 ×10⁻⁶ cm/s. Consider `CCNC1=N[C@@H]2[C@H](F)[C@H](O)[C@@H]([C@@H](C)O)O[C@@H]2S1` [Example 37, (3aR,5R,6R,7S,7aR)-2-(ethylamino)-7-fluoro-5-((R)-1-hydroxyethyl)-5,6,7,7a-tetrahydro-3aH-pyrano[3,2-d]thiazol-6-ol], for which the affinity on human O-GlcNAcase corresponds to a Ki of 266 nM. In addition, in series [1], the apparent permeability (Papp) at 3 h, 1 μM was found to be 2.1 ×10⁻⁶ cm/s. In turn, `CNC1=N[C@@H]2[C@H](F)[C@H](O)[C@@H]([C@@H](O)C(F)(F)F)O[C@@H]2S1` [Example 38, (3aR,5S,6R,7S,7aR)-7-fluoro-2-(methylamino)-5-((R)-2,2,2-trifluoro-1-hydroxyethyl)-5,6,7,7a-tetrahydro-3aH-pyrano[3,2-d]thiazol-6-ol] yielded an inhibition constant (Ki) at human O-GlcNAcase of 0.7 nM. In addition, the concentration giving a half-maximal response (EC50) on O-GlcNAcase was 9.1 nM. In series [1], the Papp at 3 h, 1 μM is 3.7 ×10⁻⁶ cm/s. The compound `CC[C@H]1O[C@@H]2SC(NC)=N[C@@H]2[C@H](F)[C@@H]1O` [Example 42, (3aR,5R,6R,7S,7aR)-5-ethyl-7-fluoro-2-(methylamino)-5,6,7,7a-tetrahydro-3aH-pyrano[3,2-d]thiazol-6-ol] had a Ki on human O-GlcNAcase of 50 nM. `CNC1=N[C@@H]2[C@H](F)[C@H](O)[C@@H](C(C)(C)O)O[C@@H]2S1` [Example 43, (3aR,5S,6R,7S,7aR)-7-fluoro-5-(2-hydroxypropan-2-yl)-2-(methylamino)-5,6,7,7a-tetrahydro-3aH-pyrano[3,2-d]thiazol-6-ol]: the Ki at human O-GlcNAcase worked out at 390 nM. Besides, the apparent permeability coefficient (Papp) at 3 h, 1 μM in series [1] is 2.4 ×10⁻⁶ cm/s.
